Measured values from patent publication US8530619B2, “Identification of the hepcidin binding site on ferroportin” (University of Utah Research Foundation, priority 2007, dated 2013).
No end group written: not given here.

Key:
[1] = biological target: T1, I-HBD (Homo sapiens, UniProt Q9NP59); assay: Competition with 125I-labeled hepcidin on HBD-coated 96-well plate; assay type: binding; conditions: 96-well plate, 0, 50, 100, 500 ng hepcidin, room temperature, 4 hours
T1 construct: made in house; host or cells: chemical synthesis
Description: In accordance with the invention, HBD can be used in an assay system to determine levels of hepcidin in a test sample. Accordingly, unlabeled HBD is immobilized on a solid substrate. HBD peptides were immobilized by covalently attaching them to a 96-well plate. Immobilization was performed using Reacti-Bind Amine-binding 96-well plates (Pierce), following the manufacturer's instructions. […] The plates were incubated at room temperature overnight. The peptide solution was then removed from the wells and a protein blocking buffer, such as dry milk in phosphate buffer saline, was added to each well and allowed to sit for two hours at 37° C. The plates were then washed with warm washing buffer to remove unbound material. HBD-coated plates were used in an assay to detect hepcidin as follows: […] The plate was incubated at room temperature for 4 hours. […] (FIG. 7)

[2] = biological target: T2, I-HBD (hepcidin binding domain of ferroportin) (Homo sapiens, UniProt Q9NP59); assay: Competition with 125I-hepcidin for binding to I-HBD beads
T2 construct: made in house; host or cells: chemical synthesis
Description: FIGS. 2A-C illustrates that the binding of ^125I-hepcidin to HBD is specific and temperature dependent. In FIG. 2A peptides (HBD, scrambled-HBD or mutant (C326Y HBD) were conjugated to beads and ^125I-hepcidin was added to the bead-immobilized peptides (I-HBD) for 18 hours at 37° C. (black bars) or 4° C. (grey bars). The beads were washed and the amount of ^125I-hepcidin bound to the I-HBD was determined. In FIG. 2B a sub saturating concentration of ^125I-hepcidin (0.6 μg/ml) was incubated with I-HBD for 18 hours at 37° C. in the presence or absence of known concentrations of either hepcidin 25 (Hep 25-open circles) or hepcidin 25 synthesized with a tyrosine substitution at position M21 (Y-Hep 25) and the amount of radioactivity bound to the I-HBD determined. In FIG. 2C sub saturating levels of ^125I-hepcidin were incubated with I-HBD at different temperatures.
The binding of ^125I-hepcidin could be reduced by addition of native non-radioactive hepcidin with an apparent K of approximately 200 nM (FIG. 2B). There was no binding of ^125I-hepcidin to I-HBD at 4° C. and ^125I-hepcidin bound to I-HBD at 37° C. was released when subsequently placed at 4° C. (data not shown).
HBD peptides were immobilized by covalently attaching them to agarose beads. […] The fluid was removed and the radioactivity bound to beads was determined by gamma counting (Perkin/Elmer).

[3] = system: E. coli; assay: Binding of hepcidin to E. coli; conditions: low temperature hepcidin dimer; preliminary study
Description: The five amino terminal amino acids of hepcidin were previously shown to be critical for binding of hepcidin to Fpn (7). […] Hepcidin is amphipathic and it is hypothesized that the hydrophobic surface of hepcidin monomers are interacting at 4° C. to form a dimer. Hepcidin, like other defensins, interacts through its hydrophobic surface with bacterial membranes (11).

[4] = Solubility of the peptide; assay type: physicochemical; conditions: two arginines added at amino and carboxyl terminals
Description: Peptides were synthesized at the DNA/Peptide Core Facility, University of Utah, Salt Lake City, Utah. The peptides were synthesized with two arginines added at the amino and carboxyl terminals. […] Microscope analysis was carried out using an Olympus BX51 microscope (Olympus, Tokyo, Japan). Images were acquired using Picture Frame 2.5 software (Olympus America, East Muskogee, Okla.). All experiments were repeated a minimum of 5 times.

solubility of the peptide [4]	Compound	competition with 125I-labeled hepcidin for binding to I-HBD [1]	binding to HBD / I-HBD [2]	binding to E. coli [3]
	CC[C@H](C)[C@@H]1NC(=O)[C@@H](NC(=O)[C@@H](NC(=O)[C@@H]2CCCN2C(=O)[C@H](Cc2ccccc2)NC(=O)[C@H](Cc2c[nH]cn2)NC(=O)[C@@H](NC(=O)[C@@H](N)CC(=O)O)[C@@H](C)O)[C@@H](C)CC)CSSC[C@@H](C(=O)N[C@@H](CCCCN)C(=O)N[C@H](C(=O)O)[C@@H](C)O)NC(=O)[C@@H]2CSSC[C@@H]3NC(=O)[C@@H]4CSSC[C@H](NC(=O)[C@H](Cc5ccccc5)NC1=O)C(=O)N[C@@H](CSSC[C@H](NC(=O)[C@H](CCCCN)NC(=O)[C@H](CO)NC(=O)[C@H](CCCNC(=N)N)NC(=O)[C@H](Cc1c[nH]cn1)NC3=O)C(=O)NCC(=O)N[C@@H](CCSC)C(=O)N2)C(=O)NCC(=O)N4 [hepcidin]	able to compete for binding to I-HBD	does bind	cannot bind to E. coli
increased the solubility	RRFDCITTGYAYTQGLSGSILSRR [HBD wt]			
